According to ChEMBL document CHEMBL4000250, “Synthesis of new derivatives of 21-imidazolyl-16-dehydropregnenolone as inhibitors of 5α-reductase 2 and with cytotoxic activity in cancer cells” (Bioorg Med Chem, 2017):
Activity calls are given as the source filed them. No cut-off for these calls is given here.

Tests used:
[1] = biological target: T1, 3-oxo-5-alpha-steroid 4-dehydrogenase 1 (Rattus norvegicus, UniProt P24008); experiment: Inhibition of rat liver microsomal 5-alpha reductase 1 assessed as decrease in conversion of testosterone to dihydrotestosterone by chromatographic method
T1 sequence (P24008 whole entry): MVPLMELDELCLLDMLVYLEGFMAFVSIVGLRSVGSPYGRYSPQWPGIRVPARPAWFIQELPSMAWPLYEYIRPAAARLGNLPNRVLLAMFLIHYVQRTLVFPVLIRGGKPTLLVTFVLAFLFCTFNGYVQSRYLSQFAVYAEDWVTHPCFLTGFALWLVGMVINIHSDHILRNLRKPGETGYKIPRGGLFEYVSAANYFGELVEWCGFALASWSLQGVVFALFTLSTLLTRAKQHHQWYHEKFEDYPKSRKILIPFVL

[2] = biological target: T2, 3-oxo-5-alpha-steroid 4-dehydrogenase 2 (Homo sapiens, UniProt P31213); experiment: Inhibition of human prostate 5-alpha reductase 2 assessed as decrease in conversion of testosterone to dihydrotestosterone by chromatographic method
T2 sequence (P31213 whole entry): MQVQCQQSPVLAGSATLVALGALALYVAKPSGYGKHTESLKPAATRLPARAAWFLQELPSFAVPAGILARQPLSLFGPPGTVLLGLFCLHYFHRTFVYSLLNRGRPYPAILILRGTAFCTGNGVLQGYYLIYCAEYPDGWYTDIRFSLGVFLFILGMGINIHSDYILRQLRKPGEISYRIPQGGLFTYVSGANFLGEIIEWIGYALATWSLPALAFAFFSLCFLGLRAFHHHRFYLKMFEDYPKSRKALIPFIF

[3] = biological target: T3, Androgen receptor (Rattus norvegicus) (UniProt P15207); experiment: (§1) Displacement of [3H]-MIB from rat prostate cytosolic androgen receptor by liquid scintillation counting method
T3 sequence (whole entry): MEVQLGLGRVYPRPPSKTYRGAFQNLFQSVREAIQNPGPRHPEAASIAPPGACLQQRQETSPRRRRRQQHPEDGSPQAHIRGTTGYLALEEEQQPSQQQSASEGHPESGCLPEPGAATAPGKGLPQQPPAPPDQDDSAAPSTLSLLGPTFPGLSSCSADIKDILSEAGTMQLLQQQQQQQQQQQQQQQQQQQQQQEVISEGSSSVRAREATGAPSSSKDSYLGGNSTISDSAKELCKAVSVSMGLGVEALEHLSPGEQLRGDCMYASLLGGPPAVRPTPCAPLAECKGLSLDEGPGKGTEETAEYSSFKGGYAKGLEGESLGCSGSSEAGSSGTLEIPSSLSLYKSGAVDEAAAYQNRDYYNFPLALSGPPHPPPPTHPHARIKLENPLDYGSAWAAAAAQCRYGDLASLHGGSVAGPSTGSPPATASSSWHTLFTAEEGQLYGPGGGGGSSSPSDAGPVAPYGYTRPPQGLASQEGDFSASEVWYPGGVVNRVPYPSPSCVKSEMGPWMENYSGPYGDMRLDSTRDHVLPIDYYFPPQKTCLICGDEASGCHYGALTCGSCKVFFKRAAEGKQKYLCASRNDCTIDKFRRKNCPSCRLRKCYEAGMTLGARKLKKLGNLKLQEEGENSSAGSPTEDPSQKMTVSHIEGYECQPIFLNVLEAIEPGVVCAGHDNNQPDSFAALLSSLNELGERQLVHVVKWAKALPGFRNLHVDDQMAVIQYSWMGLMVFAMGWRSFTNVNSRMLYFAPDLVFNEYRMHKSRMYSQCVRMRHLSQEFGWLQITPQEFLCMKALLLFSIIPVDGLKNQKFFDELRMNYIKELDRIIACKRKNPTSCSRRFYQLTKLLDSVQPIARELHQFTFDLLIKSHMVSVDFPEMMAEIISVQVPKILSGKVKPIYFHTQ

PC-3 = experiment: Cytotoxicity against human PC3 cells assessed as growth inhibition at 50 uM after 48 hrs by sulforhodamine B assay relative to control; format: functional; conditions: for inhibition of growth at 50 µM: PC-3, 48 h, read-out: GI
MCF7 = experiment: Cytotoxicity against human MCF7 cells assessed as growth inhibition at 50 uM after 48 hrs by sulforhodamine B assay relative to control; format: functional; conditions: for inhibition of growth at 50 µM: MCF7, 48 h, read-out: GI
SK-LU-1 = experiment: Cytotoxicity against human SKLU1 cells assessed as growth inhibition at 50 uM after 48 hrs by sulforhodamine B assay relative to control; format: functional; conditions: for inhibition of growth at 50 µM: SK-LU-1, 48 h, read-out: GI
Syrian golden hamster [4] = experiment: Hyperplasia activity in castrated golden hamster assessed as prostate weight at 2 mg/kg, sc co-administered with testosterone for 6 days (reference value: 98 +/- 12.6 mg); format: functional, Mesocricetus auratus
Syrian golden hamster [5] = experiment: Hyperplasia activity in castrated golden hamster assessed as seminal vesicles weight at 2 mg/kg, sc co-administered with testosterone for 6 days (reference value: 200.6 +/- 55 mg); format: functional, Mesocricetus auratus
Syrian golden hamster [6] = experiment: Hyperplasia activity in castrated golden hamster assessed as diameter of pigmented spot of flank organs at 2 mg/kg, sc administered for 6 days (reference value: 5.65 +/- 1.12 mm); format: functional, Mesocricetus auratus
Syrian golden hamster [7] = experiment: Toxicity in castrated golden hamster at 2 mg/kg, sc co-administered with testosterone for 6 days; format: organism-based, Mesocricetus auratus; conditions: in vivo, 144 h
Androgen receptor = biological target: T4, Androgen receptor (Rattus norvegicus, UniProt P15207); experiment: as §1
T4 sequence (P15207 whole entry): T3 sequence (whole entry)

Row | Compound | IC50 [1] | IC50 ([2]; read-out: IC50) | inhibition [3] | growth inhibition (GI) (PC-3) | growth inhibition (GI) (MCF7) | growth inhibition (GI) (SK-LU-1) | Activity (Syrian golden hamster [4]) | Activity (Syrian golden hamster [5]) | Activity (Syrian golden hamster [6]) | Activity (Syrian golden hamster [7]) | IC50 [2] | inhibition of growth at 50 µM (PC-3) | inhibition of growth at 50 µM (MCF7) | inhibition of growth at 50 µM (SK-LU-1) | IC50 (Androgen receptor)
1 | C[C@]12CC[C@H](OC(=O)C3CC3)CC1=CC[C@@H]1[C@@H]2CC[C@]2(C)C(C(=O)Cn3ccnc3)=CC[C@@H]12 | Not Active | 711 nM | inactive | inactive | inactive | inactive | 77.1 mg | 160.9 mg | 3.4 mm | Non-Toxic |  |  |  |  | 
2 | CCCCCC(=O)O[C@H]1CC[C@@]2(C)C(=CC[C@@H]3[C@@H]2CC[C@]2(C)C(C(=O)Cn4ccnc4)=CC[C@@H]32)C1 | Not Active |  | inactive |  |  |  | 71.85 mg | 198.33 mg | 3.36 mm | Non-Toxic | Not Active | 17.2% | 28.1% | 28.5% | 
3 | C[C@]12CC[C@H](OC(=O)C3CCCC3)CC1=CC[C@@H]1[C@@H]2CC[C@]2(C)C(C(=O)Cn3ccnc3)=CC[C@@H]12 | Not Active | 35 nM | inactive | inactive | inactive | inactive | 65.1 mg | 143.7 mg | 2 mm | Non-Toxic |  |  |  |  | 
4 | CCCCC(=O)O[C@H]1CC[C@@]2(C)C(=CC[C@@H]3[C@@H]2CC[C@]2(C)C(C(=O)Cn4ccnc4)=CC[C@@H]32)C1 | Not Active |  | inactive |  |  |  | 80.93 mg | 198.33 mg | 2.94 mm | Non-Toxic | Not Active | 23.7% | 51.3% | 39.2% | 
5 | C[C@@H]1CC2=CC(=O)CC[C@@H]2[C@H]2CC[C@@]3(C)[C@@H](CC[C@]3(C)O)[C@@H]21 [MIBOLERONE] |  |  |  |  |  |  |  |  |  |  |  |  |  |  | 1 nM
6 | CCCC(=O)O[C@H]1CC[C@@]2(C)C(=CC[C@@H]3[C@@H]2CC[C@]2(C)C(C(=O)Cn4ccnc4)=CC[C@@H]32)C1 | Not Active |  | inactive |  |  |  | 83.43 mg | 217.45 mg | 1.98 mm | Non-Toxic | Not Active | 0% | 0% | 25.2% | 
7 | C[C@]12CC[C@H](O)CC1=CC[C@@H]1[C@@H]2CC[C@]2(C)C(C(=O)Cn3ccnc3)=CC[C@@H]12 | Not Active | 119000 nM | inactive |  |  |  |  |  |  |  |  | 96.2% | 89.4% | 74.8% | 
8 | C[C@]12CC[C@H](OC(=O)C3CCCCCC3)CC1=CC[C@@H]1[C@@H]2CC[C@]2(C)C(C(=O)Cn3ccnc3)=CC[C@@H]12 | Not Active |  | inactive | inactive | inactive | inactive | 70.8 mg | 143.6 mg | 2.8 mm | Non-Toxic | Not Active |  |  |  | 
9 | CCC(=O)O[C@H]1CC[C@@]2(C)C(=CC[C@@H]3[C@@H]2CC[C@]2(C)C(C(=O)Cn4ccnc4)=CC[C@@H]32)C1 | Not Active |  | inactive |  |  |  | 88.4 mg | 231.7 mg | 1.8 mm | Non-Toxic | Not Active | 22.6% | 0% | 16.8% | 
10 | C[C@]12CC[C@H](OC(=O)C3CCC3)CC1=CC[C@@H]1[C@@H]2CC[C@]2(C)C(C(=O)Cn3ccnc3)=CC[C@@H]12 | Not Active | 76.4 nM | inactive | inactive | inactive | inactive | 71.3 mg | 145.2 mg | 3 mm | Non-Toxic |  |  |  |  | 
11 | C[C@]12CC[C@H](OC(=O)C3CCCCC3)CC1=CC[C@@H]1[C@@H]2CC[C@]2(C)C(C(=O)Cn3ccnc3)=CC[C@@H]12 | Not Active | 29.3 nM | inactive | inactive | inactive | inactive | 54.3 mg | 143.68 mg | 2.4 mm | Non-Toxic |  |  |  |  | 
12 | CC(=O)O[C@H]1CC[C@@]2(C)C(=CC[C@@H]3[C@@H]2CC[C@]2(C)C(C(=O)Cn4ccnc4)=CC[C@@H]32)C1 | Not Active | 122000 nM | inactive |  |  |  | 85.8 mg | 200.5 mg | 3.06 mm | Non-Toxic |  | 79.6% | 77.9% | 96.7% | 
13 | CC(=O)O[C@H]1CC[C@@]2(C)C(=CC[C@@H]3[C@@H]2CC[C@]2(C)C(C(C)=O)=CC[C@@H]32)C1 | Not Active |  | inactive |  |  |  |  |  |  |  | Not Active | 21.4% | 25.5% | 12.8% | 
